Experiments:
[1] = target: human JAK2 (Homo sapiens (Human), UniProt O60674); test: JAK2 TR-FRET kinase assay; type: biochemical; conditions: JAK2 0.025 nM
[2] = target: human JAK1 (Homo sapiens (Human), UniProt P23458); test: JAK1 TR-FRET kinase assay; type: biochemical; conditions: TR-FRET, JAK1 2.5 nM
[3] = target: TYK2 JH2 domain (Homo sapiens (Human), UniProt P29597); test: TYK2 JH2 NanoBRET assay; type: binding; conditions: Table 20, read-out: TYK2 IC50
Procedure: HEK293T cells were transfected with NanoLuc-TYK2 JH2 Fusion Vector (Promega, customized) using Trans-IT reagent (Mirus, #MIR2700) and incubated for overnight in 37° C. incubator. […] Add 85 µL of cell suspension into white, polypropylene, 96-well plates (Corning, #3600). 90 µL of cells were used for no tracer control samples. 5 µL of diluted NanoBRET K10 tracer (Promega, #CS1810C122) were added to cells to a final concentration of 0.5 µM. Test compounds were diluted into DMSO, and then phenol-free opti-MEM to 10X of final concentration. 10 µL of diluted compounds were added into each well. The cells were incubated with test compound and tracer for 2 hours. 3XNanoBRET® Nano-Glo® Substrate and Extracellular NanoLuc® Inhibitor mixture were prepared and 50 µL of the mixture were added into the wells and mixed. […] NanoBRET signal was determined by using the ratio of acceptor signal and donor signal.

[4] = target: human JAK3 (Homo sapiens (Human), UniProt P52333); test: JAK3 TR-FRET kinase assay; type: biochemical; conditions: JAK3 0.0125 nM
Chain of human JAK3 (P52333 whole entry): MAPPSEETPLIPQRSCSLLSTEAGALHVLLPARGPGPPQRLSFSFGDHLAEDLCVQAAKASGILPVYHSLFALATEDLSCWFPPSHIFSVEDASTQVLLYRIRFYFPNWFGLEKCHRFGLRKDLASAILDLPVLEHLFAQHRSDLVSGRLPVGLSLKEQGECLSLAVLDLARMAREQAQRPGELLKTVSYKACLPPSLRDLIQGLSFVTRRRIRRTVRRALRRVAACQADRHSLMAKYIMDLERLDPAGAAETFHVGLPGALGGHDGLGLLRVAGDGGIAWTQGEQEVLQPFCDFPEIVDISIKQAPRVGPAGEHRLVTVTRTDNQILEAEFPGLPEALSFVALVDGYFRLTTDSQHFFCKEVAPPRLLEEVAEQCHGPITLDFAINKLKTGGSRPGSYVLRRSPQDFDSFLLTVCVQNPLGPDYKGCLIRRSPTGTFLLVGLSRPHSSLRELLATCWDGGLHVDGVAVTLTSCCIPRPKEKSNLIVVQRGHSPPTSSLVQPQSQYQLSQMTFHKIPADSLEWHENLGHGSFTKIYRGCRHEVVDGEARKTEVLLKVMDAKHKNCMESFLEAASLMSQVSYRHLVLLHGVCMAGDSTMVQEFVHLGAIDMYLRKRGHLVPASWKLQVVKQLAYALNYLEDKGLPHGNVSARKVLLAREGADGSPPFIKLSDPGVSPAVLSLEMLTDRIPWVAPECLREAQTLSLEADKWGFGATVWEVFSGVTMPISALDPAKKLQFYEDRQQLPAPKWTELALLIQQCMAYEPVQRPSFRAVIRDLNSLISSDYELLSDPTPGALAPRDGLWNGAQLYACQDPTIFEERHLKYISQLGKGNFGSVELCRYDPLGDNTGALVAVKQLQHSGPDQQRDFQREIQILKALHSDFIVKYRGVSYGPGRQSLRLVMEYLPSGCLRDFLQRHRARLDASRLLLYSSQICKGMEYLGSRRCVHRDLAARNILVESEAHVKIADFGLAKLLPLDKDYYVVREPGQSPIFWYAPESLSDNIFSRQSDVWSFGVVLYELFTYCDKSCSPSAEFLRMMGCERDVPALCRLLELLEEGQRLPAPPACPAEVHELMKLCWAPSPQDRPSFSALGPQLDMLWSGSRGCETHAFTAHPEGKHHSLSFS

Chain of TYK2 JH2 domain (P29597 589-875): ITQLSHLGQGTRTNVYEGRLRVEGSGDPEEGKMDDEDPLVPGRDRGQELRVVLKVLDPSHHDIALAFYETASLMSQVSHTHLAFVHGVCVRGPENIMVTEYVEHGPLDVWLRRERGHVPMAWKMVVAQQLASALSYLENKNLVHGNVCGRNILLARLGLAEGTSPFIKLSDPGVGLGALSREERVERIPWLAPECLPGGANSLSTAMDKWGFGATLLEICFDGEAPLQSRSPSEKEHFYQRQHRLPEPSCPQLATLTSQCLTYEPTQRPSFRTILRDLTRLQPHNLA
Chain of human JAK1 (P23458 whole entry, the tested form may be a part): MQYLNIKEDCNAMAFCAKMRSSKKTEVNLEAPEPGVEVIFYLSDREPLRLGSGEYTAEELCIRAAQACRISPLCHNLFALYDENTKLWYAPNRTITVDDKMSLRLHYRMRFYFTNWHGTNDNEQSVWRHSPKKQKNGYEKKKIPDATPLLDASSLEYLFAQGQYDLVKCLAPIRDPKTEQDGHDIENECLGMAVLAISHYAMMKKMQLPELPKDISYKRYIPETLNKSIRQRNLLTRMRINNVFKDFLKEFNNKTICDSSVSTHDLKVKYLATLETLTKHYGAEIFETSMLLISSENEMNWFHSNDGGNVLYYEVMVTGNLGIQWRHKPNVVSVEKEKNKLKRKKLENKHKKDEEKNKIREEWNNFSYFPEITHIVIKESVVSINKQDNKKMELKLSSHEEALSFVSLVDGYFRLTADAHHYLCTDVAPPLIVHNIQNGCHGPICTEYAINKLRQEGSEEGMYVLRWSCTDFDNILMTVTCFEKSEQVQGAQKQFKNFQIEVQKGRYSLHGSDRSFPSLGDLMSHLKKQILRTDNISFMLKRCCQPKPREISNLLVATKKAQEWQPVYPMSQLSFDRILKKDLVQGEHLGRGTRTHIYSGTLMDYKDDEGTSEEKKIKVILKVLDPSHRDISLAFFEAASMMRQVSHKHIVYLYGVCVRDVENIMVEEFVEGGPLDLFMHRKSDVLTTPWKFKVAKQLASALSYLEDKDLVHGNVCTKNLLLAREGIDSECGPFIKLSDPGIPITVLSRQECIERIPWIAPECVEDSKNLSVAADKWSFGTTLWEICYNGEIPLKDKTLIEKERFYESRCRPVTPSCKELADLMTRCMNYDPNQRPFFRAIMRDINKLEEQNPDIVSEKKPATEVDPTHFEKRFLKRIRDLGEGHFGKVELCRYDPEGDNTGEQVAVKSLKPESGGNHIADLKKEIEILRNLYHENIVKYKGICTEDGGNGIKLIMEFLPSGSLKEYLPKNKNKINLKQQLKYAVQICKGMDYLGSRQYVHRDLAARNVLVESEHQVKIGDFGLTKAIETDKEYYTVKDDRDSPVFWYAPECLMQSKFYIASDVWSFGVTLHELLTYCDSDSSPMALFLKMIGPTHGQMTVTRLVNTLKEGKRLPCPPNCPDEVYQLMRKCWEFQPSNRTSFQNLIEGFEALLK
Chain of human JAK2 (O60674 whole entry): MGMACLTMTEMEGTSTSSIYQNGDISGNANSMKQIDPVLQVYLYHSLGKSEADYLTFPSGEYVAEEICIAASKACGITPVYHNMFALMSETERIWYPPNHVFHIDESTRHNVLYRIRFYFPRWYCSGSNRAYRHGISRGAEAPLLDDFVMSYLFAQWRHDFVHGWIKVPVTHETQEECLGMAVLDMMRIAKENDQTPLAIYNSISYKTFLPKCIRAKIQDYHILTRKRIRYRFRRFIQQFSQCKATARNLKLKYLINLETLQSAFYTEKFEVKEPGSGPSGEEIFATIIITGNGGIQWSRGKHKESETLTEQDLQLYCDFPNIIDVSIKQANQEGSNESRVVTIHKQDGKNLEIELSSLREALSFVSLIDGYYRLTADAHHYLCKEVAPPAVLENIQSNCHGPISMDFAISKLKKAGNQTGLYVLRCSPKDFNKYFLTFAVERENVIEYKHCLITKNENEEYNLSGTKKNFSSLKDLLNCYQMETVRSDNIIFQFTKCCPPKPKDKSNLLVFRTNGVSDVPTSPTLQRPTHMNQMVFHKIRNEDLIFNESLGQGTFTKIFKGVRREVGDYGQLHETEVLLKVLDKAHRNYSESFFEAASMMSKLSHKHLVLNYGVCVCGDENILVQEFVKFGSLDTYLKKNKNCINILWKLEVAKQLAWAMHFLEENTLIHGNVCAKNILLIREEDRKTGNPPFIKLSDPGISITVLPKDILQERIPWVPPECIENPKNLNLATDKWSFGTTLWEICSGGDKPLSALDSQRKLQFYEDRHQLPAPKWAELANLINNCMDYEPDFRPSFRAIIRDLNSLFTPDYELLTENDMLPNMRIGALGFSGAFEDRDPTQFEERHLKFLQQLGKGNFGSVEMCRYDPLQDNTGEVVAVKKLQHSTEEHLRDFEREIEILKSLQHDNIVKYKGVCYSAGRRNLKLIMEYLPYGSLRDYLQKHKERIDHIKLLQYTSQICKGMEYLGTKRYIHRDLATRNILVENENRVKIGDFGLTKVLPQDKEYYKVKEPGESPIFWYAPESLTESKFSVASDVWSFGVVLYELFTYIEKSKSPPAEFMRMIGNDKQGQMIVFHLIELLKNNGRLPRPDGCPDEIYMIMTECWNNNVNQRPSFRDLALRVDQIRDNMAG

Compound | IC50 [1] | IC50 [2] | IC50 [3] | IC50 [4]
CCC(=O)c1cnc(Nc2cc(CN3CCCC3)ccn2)cc1Nc1cccc(-c2ncn(C)n2)c1OC [Compound 9IIII] | 50 to 500 nM | ≥ 500 nM | < 5 nM | 50 to 500 nM
CCC(=O)c1cnc(Nc2ncc(-n3ccccc3=O)cc2F)cc1Nc1cccc(-c2ncn(C)n2)c1OC [Compound 15AA] | ≥ 500 nM | ≥ 500 nM | 50 to 500 nM | ≥ 500 nM
CCC(=O)c1cnc(Nc2cccc(C(=O)O)n2)cc1Nc1cccc(-c2ncn(C)n2)c1OC [Compound 8I] | ≥ 500 nM | ≥ 500 nM | ≥ 500 nM | ≥ 500 nM
CCC(=O)c1cnc(Nc2cc(CN3CCCC3)ncn2)cc1Nc1cccc(-c2ncn(C)n2)c1OC [Compound 9NNNN] | ≥ 500 nM | ≥ 500 nM | < 5 nM | ≥ 500 nM
CCC(=O)c1cnc(Nc2ccc(OC[C@@H](O)CO)cn2)cc1Nc1cccc(-c2ncn(C)n2)c1OC [Compound 18F] | ≥ 500 nM | ≥ 500 nM | 5 to 50 nM | 50 to 500 nM
CCC(=O)c1cnc(Nc2cnc(C3(N)CC3)cn2)cc1Nc1cccc(-c2ncn(C)n2)c1OC [Compound 9YYY] | ≥ 500 nM | ≥ 500 nM | 5 to 50 nM | ≥ 500 nM
CCC(=O)c1cnc(Nc2ccc(-c3ccc[nH]c3=O)cn2)cc1Nc1cccc(-c2ncn(C)n2)c1OC [Compound 15W] | 50 to 500 nM | ≥ 500 nM | 5 to 50 nM | 50 to 500 nM
CCC(=O)c1cnc(Nc2ccc(S(C)(=O)=O)cn2)cc1Nc1cccc(C(C)(C)O)c1OC [Compound 13Y] | ≥ 500 nM | ≥ 500 nM | 50 to 500 nM | ≥ 500 nM
CCC(=O)c1cnc(Nc2ccc(C(C)NC)cn2)cc1Nc1cccc(-c2ncn(C)n2)c1OC (centres unmarked) [Compound 9H] | ≥ 500 nM | ≥ 500 nM | < 5 nM | ≥ 500 nM
CCC(=O)c1cnc(Nc2cnc(O[C@@H]3CCNC3)cn2)cc1Nc1cccc(-c2ncn(C)n2)c1OC [Compound 18SS] | ≥ 500 nM | ≥ 500 nM | 5 to 50 nM | ≥ 500 nM
CCC(=O)c1cnc(Nc2ccc(C(=O)NC)cn2)cc1Nc1cccc(-c2ncn(C)n2)c1OC [Compound 8C] | ≥ 500 nM | ≥ 500 nM | < 5 nM | ≥ 500 nM
CCC(=O)c1cnc(Nc2cnc(CCN3CCCC3)cn2)cc1Nc1cccc(-c2ncn(C)n2)c1OC [Compound 11J] | ≥ 500 nM | ≥ 500 nM | 5 to 50 nM | ≥ 500 nM
CCC(=O)c1cnc(Nc2ncc(CN(C)C)cc2F)cc1Nc1cccc(-c2ncn(C)n2)c1OC [Compound 9DDDD] | ≥ 500 nM | ≥ 500 nM | 5 to 50 nM | ≥ 500 nM
CCC(=O)c1cnc(Nc2ccn(-c3ccccc3)c(=O)n2)cc1Nc1nccc(-c2ncn(C)n2)c1OC [Compound 15S] | ≥ 500 nM | ≥ 500 nM | 5 to 50 nM | ≥ 500 nM
CCC(=O)c1cnc(Nc2cnc(OCCN3CC(F)(F)C3)cn2)cc1Nc1cccc(-c2ncn(C)n2)c1OC [Compound 18QQ] | ≥ 500 nM | ≥ 500 nM | 5 to 50 nM | ≥ 500 nM
CCC(=O)c1cnc(Nc2cnc(O[C@@H]3CCN(C)C3)c(C)n2)cc1Nc1cccc(-c2ncn(C)n2)c1OC [Compound 18JJJ] | ≥ 500 nM | ≥ 500 nM | 5 to 50 nM | ≥ 500 nM
CCC(=O)c1cnc(Nc2ccc(CN3C[C@@H](C)O[C@@H](C)C3)cn2)cc1Nc1cccc(-c2ncn(C)n2)c1OC [Compound 9UU] | ≥ 500 nM | ≥ 500 nM | < 5 nM | ≥ 500 nM
CCC(=O)c1cnc(Nc2ccc(C(N(C)C)C(F)(F)F)cn2)cc1Nc1cccc(-c2ncn(C)n2)c1OC (centres unmarked) [Compound 9V] | ≥ 500 nM | ≥ 500 nM | < 5 nM | ≥ 500 nM
CCC(=O)c1cnc(Nc2ccnc(OC3CN(C)C3)n2)cc1Nc1cccc(-c2ncn(C)n2)c1OC [Compound 18JJ] | ≥ 500 nM | ≥ 500 nM | 5 to 50 nM | ≥ 500 nM
CCC(=O)c1cnc(Nc2ccc(C(C)NCC(F)F)cn2)cc1Nc1cccc(-c2ncn(C)n2)c1OC (centres unmarked) [Compound 9AA] | 50 to 500 nM | ≥ 500 nM | < 5 nM | 50 to 500 nM
CCC(=O)c1cnc(Nc2ccc(OC(CO)CO)cn2)cc1Nc1cccc(-c2ncn(C)n2)c1OC [Compound 18H] | ≥ 500 nM | ≥ 500 nM | 5 to 50 nM | ≥ 500 nM
CCC(=O)c1cnc(Nc2ccc(O[C@H]3COC[C@@H]3O)cn2)cc1Nc1cccc(-c2ncn(C)n2)c1OC [Compound 18R] | ≥ 500 nM | ≥ 500 nM | < 5 nM | 50 to 500 nM

Now from value to molecule:

IC50 [1] | IC50 [2] | IC50 [3] | IC50 [4] | Compound
≥ 500 nM | ≥ 500 nM | 50 to 500 nM | ≥ 500 nM | CCC(=O)c1cnc(NC(=O)C2CC2c2ccn(C)n2)cc1Nc1cccc(-c2ncn(C)n2)c1OC (centres unmarked) [Compound 22M]
≥ 500 nM | ≥ 500 nM | < 5 nM | ≥ 500 nM | CCC(=O)c1cnc(Nc2ccc(O[C@@H]3CCN(C)C3)cn2)cc1Nc1cc(F)cc(-c2ncn(C)n2)c1OC [Compound 18WWW]
≥ 500 nM | ≥ 500 nM | < 5 nM | 50 to 500 nM | CCC(=O)c1cnc(Nc2ccc(O[C@@H]3CCN(C)C3)cn2)cc1Nc1cccc(-c2ncn(C)n2)c1OC [Compound 18V]
≥ 500 nM | ≥ 500 nM | 5 to 50 nM | ≥ 500 nM | CCC(=O)c1cnc(Nc2ccn([C@H]3C[C@H](OC)C3)n2)cc1Nc1cccc(-c2ncn(C)n2)c1OC [Compound 21L]
≥ 500 nM | ≥ 500 nM | 5 to 50 nM | ≥ 500 nM | CCC(=O)c1cnc(Nc2cnc(OCCN3CC[C@@H](F)C3)cn2)cc1Nc1cccc(-c2ncn(C)n2)c1OC [Compound 18YY]
≥ 500 nM | ≥ 500 nM | ≥ 500 nM | ≥ 500 nM | CCC(=O)c1cnc(NC(=O)C2CC2)cc1Nc1cc(CN(C)C)cc(-c2ncn(C)n2)c1OC [Compound 25C]
≥ 500 nM | ≥ 500 nM | < 5 nM | ≥ 500 nM | CCC(=O)c1cnc(Nc2ccn(-c3ccccn3)n2)cc1Nc1cccc(-c2ncn(C)n2)c1OC [Compound 21E]
≥ 500 nM | ≥ 500 nM | 5 to 50 nM | ≥ 500 nM | CCC(=O)c1cnc(Nc2ccn([C@H]3C[C@H](C#N)C3)n2)cc1Nc1cccc(-c2ncn(C)n2)c1OC [Compound 210]
≥ 500 nM | ≥ 500 nM | 5 to 50 nM | ≥ 500 nM | CCC(=O)c1cnc(Nc2ncc(O[C@@H]3CCN(C)C3)cc2F)cc1Nc1cccc(-c2ncn(C)n2)c1OC [Compound 18XXX]
≥ 500 nM | ≥ 500 nM | < 5 nM | 50 to 500 nM | CCC(=O)c1cnc(Nc2ccc(O[C@@H]3CCN(C)C3)c(C)n2)cc1Nc1cccc(-c2ncn(C)n2)c1OC [Compound 18YYY]

Source: patent US20230295119A1, “SUBSTITUTED PYRIDINES FOR THE TREATMENT OF INFLAMMATORY DISEASES” (GOSSAMER BIO SERVICES, INC., priority 2020, published 2023)
